Test system: 4-week-old Hubbard×Hubbard cockerels
Assay: Example 2: effect of TRH on growth in 4-week-old male chicks (25 days)
Type: in vivo, chicken
Description: Four-week-old Hubbard×Hubbard cockerels were used in this experiment, and average weight was 831.38 g. Synthetic TRH (Beckman Co., CA) was dissolved in saline and given daily by intravenous injection via the brachial vein at 0.1 μg/bird, 1.0 μg/bird, and 10 μg/ bird. Birds were weighed twice a week for 4 weeks. Data were analyzed by least squares of variance, using initial weight as a covariant.

[1] = TRH (high) 10 μg/bird daily intravenous, day 11 after start of treatment
[2] = TRH (high) 10 μg/bird daily intravenous, day 15 after start of treatment
[3] = TRH (high) 10 μg/bird daily intravenous, day 18 after start of treatment
[4] = TRH (high) 10 μg/bird daily intravenous, day 22 after start of treatment
[5] = TRH (high) 10 μg/bird daily intravenous, day 25 after start of treatment
[6] = TRH (low) 0.1 μg/bird daily intravenous, day 4 after start of treatment
[7] = TRH (low) 0.1 μg/bird daily intravenous, day 8 after start of treatment
[8] = TRH (low) 0.1 μg/bird daily intravenous, day 11 after start of treatment
[9] = TRH (low) 0.1 μg/bird daily intravenous, day 15 after start of treatment
[10] = TRH (low) 0.1 μg/bird daily intravenous, day 18 after start of treatment
[11] = TRH (low) 0.1 μg/bird daily intravenous, day 18 after start of treatment, p < 0.1
[12] = TRH (low) 0.1 μg/bird daily intravenous, day 22 after start of treatment
[13] = TRH (low) 0.1 μg/bird daily intravenous, day 22 after start of treatment, p < 0.1
[14] = TRH (low) 0.1 μg/bird daily intravenous, day 25 after start of treatment, p < 0.1
[15] = TRH (med.) 1.0 μg/bird daily intravenous, day 4 after start of treatment
[16] = TRH (med.) 1.0 μg/bird daily intravenous, day 8 after start of treatment
[17] = TRH (med.) 1.0 μg/bird daily intravenous, day 11 after start of treatment
[18] = TRH (med.) 1.0 μg/bird daily intravenous, day 15 after start of treatment
[19] = TRH (med.) 1.0 μg/bird daily intravenous, day 18 after start of treatment
[20] = TRH (med.) 1.0 μg/bird daily intravenous, day 18 after start of treatment, p < 0.1
[21] = TRH (med.) 1.0 μg/bird daily intravenous, day 22 after start of treatment
[22] = TRH (med.) 1.0 μg/bird daily intravenous, day 22 after start of treatment, p < 0.05
[23] = TRH (med.) 1.0 μg/bird daily intravenous, day 25 after start of treatment, p<0.025

Structure (SMILES): NC(=O)[C@@H]1CCCN1C(=O)[C@H](Cc1c[nH]cn1)NC(=O)[C@@H]1CCC(=O)N1 [TRH, Glp--His--Pro--NH2]
- body weight, percent increased as compared with control (TRH (high) 10 μg/bird daily intravenous, day 8 after start of treatment): 0%
- body weight gain [1]: 542.9 ± 20.5 g
- body weight gain, percent increase as compared with control [1]: 0%
- body weight, least squares mean ± standard error of the mean corrected by initial weight [1]: 1381.7 ± 20.3 g
- body weight, percent increased as compared with control [1]: 0%
- body weight gain [2]: 786.4 ± 20.4 g
- body weight gain, percent increase as compared with control [2]: 0.9%
- body weight, least squares mean ± standard error of the mean corrected by initial weight [2]: 1627.6 ± 20.4 g
- body weight, percent increased as compared with control [2]: 0.4%
- body weight gain [3]: 981.5 ± 24.3 g
- body weight gain, percent increase as compared with control [3]: 2.7%
- body weight, least squares mean ± standard error of the mean corrected by initial weight [3]: 1821.6 ± 24.2 g
- body weight, percent increased as compared with control [3]: 1.4%
- body weight gain [4]: 1193.2 ± 26.3 g
- body weight gain, percent increase as compared with control [4]: 2.1%
- body weight, least squares mean ± standard error of the mean corrected by initial weight [4]: 2034.4 ± 26.3 g
- body weight, percent increased as compared with control [4]: 1.2%
- body weight gain [5]: 1390.9 ± 28.7 g
- body weight gain, percent increase as compared with control [5]: 2.9%
- body weight, least squares mean ± standard error of the mean corrected by initial weight [5]: 2232.1 ± 28.7 g
- body weight, percent increased as compared with control [5]: 1.7%
- body weight gain [6]: 167.1 ± 8.4 g
- body weight gain, percent increase as compared with control [6]: 11.8%
- body weight, least squares mean ± standard error of the mean corrected by initial weight [6]: 1012.2 ± 8.3 g
- body weight, percent increased as compared with control [6]: +2.2%
- body weight gain [7]: 407.6 ± 15.1 g
- body weight gain, percent increase as compared with control [7]: 7.8%
- body weight, least squares mean ± standard error of the mean corrected by initial weight [7]: 1248 ± 15.0 g
- body weight, percent increased as compared with control [7]: +2.4%
- body weight gain [8]: 585.1 ± 20.5 g
- body weight gain, percent increase as compared with control [8]: 7.0%
- body weight, least squares mean ± standard error of the mean corrected by initial weight [8]: 1426.4 ± 20.3 g
- body weight, percent increased as compared with control [8]: +2.8%
- body weight gain [9]: 822.9 ± 20.4 g
- body weight gain, percent increase as compared with control [9]: 5.6%
- body weight, least squares mean ± standard error of the mean corrected by initial weight [9]: 1664.2 ± 20.4 g
- body weight, percent increased as compared with control [9]: +2.7%
- body weight gain, percent increase as compared with control [10]: 6.3%
- body weight, percent increased as compared with control [10]: +3.3%
- body weight gain [11]: 1015.8 ± 24.3 g
- body weight, least squares mean ± standard error of the mean corrected by initial weight [11]: 1856.9 ± 24.2 g
- body weight gain, percent increase as compared with control [12]: 6.4%
- body weight, percent increased as compared with control [12]: 3.7%
- body weight gain [13]: 1243.5 ± 26.3 g
- body weight, least squares mean ± standard error of the mean corrected by initial weight [13]: 2084.7 ± 26.3 g
- body weight, percent increased as compared with control (TRH (low) 0.1 μg/bird daily intravenous, day 25 after start of treatment): 3.4%
- body weight gain, percent increase as compared with control (TRH (low) 0.1 μg/bird daily intravenous, day 25 after start of treatment (end of experiment)): 5.6%
- body weight gain [14]: 1428.1 g
- body weight, least squares mean ± standard error of the mean corrected by initial weight [14]: 2269.3 g
- body weight gain [15]: 170.1 ± 7.9 g
- body weight gain, percent increase as compared with control [15]: 13.9%
- body weight, least squares mean ± standard error of the mean corrected by initial weight [15]: 1010.3 ± 7.8 g
- body weight, percent increased as compared with control [15]: +2.0%
- body weight gain [16]: 413.4 ± 14.2 g
- body weight gain, percent increase as compared with control [16]: 9.3%
- body weight, least squares mean ± standard error of the mean corrected by initial weight [16]: 1254.1 ± 14.2 g
- body weight, percent increased as compared with control [16]: +2.8%
- body weight gain [17]: 573.1 ± 19.3 g
- body weight gain, percent increase as compared with control [17]: 4.5%
- body weight, least squares mean ± standard error of the mean corrected by initial weight [17]: 1415.4 ± 19.1 g
- body weight, percent increased as compared with control [17]: +2.0%
- body weight gain [18]: 823.2 ± 19.2 g
- body weight gain, percent increase as compared with control [18]: 5.7%
- body weight, least squares mean ± standard error of the mean corrected by initial weight [18]: 1664.4 ± 19.2 g
- body weight, percent increased as compared with control [18]: +2.7%
- body weight gain, percent increase as compared with control [19]: 6.6%
- body weight, percent increased as compared with control [19]: +3.5%
- body weight gain [20]: 1018.9 ± 22.9 g
- body weight, least squares mean ± standard error of the mean corrected by initial weight [20]: 1860.1 ± 22.8 g
- body weight gain, percent increase as compared with control [21]: 7.0%
- body weight, percent increased as compared with control [21]: 4.1%
- body weight gain [22]: 1250.5 ± 24.8 g
- body weight, least squares mean ± standard error of the mean corrected by initial weight [22]: 2091.7 ± 24.8 g
- body weight, percent increased as compared with control (TRH (med.) 1.0 μg/bird daily intravenous, day 25 after start of treatment): 4.6%
- body weight gain, percent increase as compared with control (TRH (med.) 1.0 μg/bird daily intravenous, day 25 after start of treatment (end of experiment)): 7.5%
- body weight gain [23]: 1453.2 g
- body weight, least squares mean ± standard error of the mean corrected by initial weight [23]: 2294.4 g
